From patent US20260098034A1, “2H-BENZOTRIAZOLE DERIVATIVE, PREPARATION METHOD THEREFOR, AND PHARMACEUTICAL COMPOSITION CONTAINING SAME” (ORXES THERAPEUTICS CO., LTD., priority 2022, published 2026)
“And” between values parts separate entries of the source, which are not always exact repeats. Identical values can stand only once.

System: Wistar rats
Assay: PCA-induced Wistar rat premature ejaculation model
Type: in vivo
Settings: for Actual number of ejaculations / Number of the seminal vesicle contractions / Seminal vesicle basal pressure / Seminal vesicle peak pressure / The first contraction latency period / The first ejaculation latency period: within 30 min after PCA induction, individual rats; for latency period of initial seminal vesicle contraction compared with the PE model group: FIG. 4
Description: Male Wistar rats with a weight of about 300 g were adapted for one week before the experiment was started. On the day of the experiment, the animals were anesthetized with a combination of 20 mg/kg of Zoletil 50 via i.p. and 8 mg/kg of xylazine via i.p., and the body temperature was maintained at 37° C. with a thermal insulation blanket. Exposed common carotid artery was intubated with PE50 to monitor real-time arterial pressure (i.e. systolic pressure, diastolic pressure, and mean arterial pressure). The seminal vesicles and cavernosal muscles of the animals were exposed. The stable baselines of the pressure of the seminal vesicle and the cavernosal myoelectricity were recorded for 10 min. Then the drug was administered through the tail vein for the dapoxetine group, and the tested compound was orally administered for the tested compound group (for the PE model group, the drug was replaced with a solvent). After 1 min, for inducing PE modeling, 5 mg/kg of PCA was injected intraperitoneally, and then the seminal vesicle pressure curve and the change of bulbospongiosus EMG were continuously recorded for 30 min.
• A. Within 30 min, the actual number of ejaculations of the animals and the latency period of the first ejaculation; • B. Within 30 min, the number of the seminal vesicle contractions, the latency period of the first contraction, the basal pressure and the peak pressure.
The experimental data were expressed by means±S.E.M., and statistical analysis was performed by GraphPad Prism 7.0 software. Single factor variance analysis (One-way ANOVA) was used for comparison between multiple groups, and Dunnett't-test was used for statistical analysis in Post hoc test. Student's t-test was used for comparison between two groups. P<0.05 was considered as a significant difference.

[1] = 0.125 mg/kg p.o. + PCA 5 mg/kg i.p.
[2] = 0.5 mg/kg p.o. + PCA 5 mg/kg i.p.
[3] = 2 mg/kg p.o. + PCA 5 mg/kg i.p.

| SMILES | Actual number of ejaculations [1] | Number of the seminal vesicle contractions [1] | Seminal vesicle basal pressure [1] | Seminal vesicle peak pressure [1] | The first contraction latency period [1] | The first ejaculation latency period [1] | Actual number of ejaculations [2] | Number of the seminal vesicle contractions [2] | Seminal vesicle basal pressure [2] | Seminal vesicle peak pressure [2] | The first contraction latency period [2] | The first ejaculation latency period [2] | Actual number of ejaculations [3] | Number of the seminal vesicle contractions [3] | Seminal vesicle basal pressure [3] | Seminal vesicle peak pressure [3] | The first contraction latency period [3] | The first ejaculation latency period [3] | other results |
| --- | --- | --- | --- | --- | --- | --- | --- | --- | --- | --- | --- | --- | --- | --- | --- | --- | --- | --- | --- |
| c1ccc2nn(CCCN3CCN(c4nsc5ccccc45)CC3)nc2c1 [Compound A004] | 0 (2×) and 3 and 6 and 4 | 3 and 4 and 8 and 6 and 2 | 4.09 mmHg and 5.98 mmHg and 5.59 mmHg and 5.17 mmHg and 4.18 mmHg | 4.21 mmHg and 13.38 mmHg and 16.13 mmHg and 15.05 mmHg and 4.25 mmHg | 1400 s and 797 s and 757 s and 735 s and 1525 s | 1800 s (2×) and 865 s and 678 s and 806 s | 5 and 6 and 2 and 0 (2×) | 7 and 8 and 3 and 0 (2×) | 5.89 mmHg and 6.07 mmHg and 5.18 mmHg and 3.99 mmHg and 4.32 mmHg | 17.95 mmHg and 29.19 mmHg and 13.88 mmHg and 4.79 mmHg and 4.77 mmHg | 798 s and 819 s and 1009 s and 1800 s (2×) | 845 s and 903 s and 1175 s and 1800 s (2×) | 0 | 0 | 4.68 mmHg and 4.67 mmHg and 4.65 mmHg and 4.66 mmHg and 3.97 mmHg | 5.18 mmHg and 5.26 mmHg and 4.96 mmHg and 4.79 mmHg and 4.87 mmHg | 1800 s | 1800 s | – |
| Fc1ccc2c(N3CCN(CCCn4nc5ccccc5n4)CC3)noc2c1 [Compound A005] | 0 (2×) and 4 (2×) and 5 | 2 and 3 and 6 and 8 and 7 | 3.99 mmHg and 3.98 mmHg and 5.98 mmHg and 5.59 mmHg and 5.18 mmHg | 4.09 mmHg and 4.29 mmHg and 16.56 mmHg and 17.17 mmHg and 18.08 mmHg | 1458 s and 1525 s and 707 s and 658 s and 738 s | 1800 s (2×) and 965 s and 878 s and 806 s | 5 (2×) and 3 and 0 (2×) | 6 and 7 and 4 and 0 (2×) | 5.89 mmHg and 6.05 mmHg and 5.15 mmHg and 3.93 mmHg and 4.22 mmHg | 18.99 mmHg and 19.11 mmHg and 12.85 mmHg and 4.09 mmHg and 4.76 mmHg | 778 s and 855 s and 1005 s and 1800 s (2×) | 845 s and 903 s and 1175 s and 1800 s (2×) | 0 | 0 (4×) and 1 | 4.16 mmHg and 4.27 mmHg and 4.65 mmHg and 4.32 mmHg and 3.93 mmHg | 5.26 mmHg and 5.22 mmHg and 7.15 mmHg and 4.83 mmHg and 4.89 mmHg | 1800 s (4×) and 1655 s | 1800 s | – |
| c1ccc2nn(CCCCN3CCN(c4noc5ccccc45)CC3)nc2c1 [Compound A001] | 8 and 9 and 11 (2×) and 10 | 10 and 11 and 12 and 13 and 16 | 6.69 mmHg and 7.04 mmHg and 7.28 mmHg and 6.91 mmHg and 7.78 mmHg | 17.17 mmHg and 21.45 mmHg and 22.67 mmHg and 23.39 mmHg and 20.58 mmHg | 784 s and 788 s and 605 s and 517 s and 839 s | 996 s and 726 s and 766 s and 823 s and 969 s | 0 (2×) and 2 (2×) and 3 | 0 (2×) and 5 and 4 and 6 | 3.88 mmHg and 4.19 mmHg and 5.77 mmHg and 5.08 mmHg and 5.68 mmHg | 4.89 mmHg and 5.09 mmHg and 11.06 mmHg and 16.57 mmHg and 14.89 mmHg | 1800 s (2×) and 1298 s and 1147 s and 1125 s | 1800 s (2×) and 1399 s and 1311 s and 1291 s | 2 and 0 (4×) | 4 and 0 and 1 (3×) | 6.88 mmHg and 4.68 mmHg and 4.38 mmHg and 4.92 mmHg and 3.98 mmHg | 18.65 mmHg and 6.99 mmHg and 6.07 mmHg and 7.32 mmHg and 6.05 mmHg | 968 s and 1800 s and 1687 s and 1774 s and 1629 s | 1055 s and 1800 s (4×) | – |
| Fc1ccc2c(N3CCN(CCCCn4nc5ccccc5n4)CC3)noc2c1 [Compound A006] | 0 and 1 and 4 (2×) and 5 | 2 (2×) and 7 (2×) and 8 | 3.93 mmHg and 3.88 mmHg and 5.98 mmHg and 5.79 mmHg and 5.18 mmHg | 4.11 mmHg and 4.21 mmHg and 16.58 mmHg and 15.19 mmHg and 17.07 mmHg | 1453 s and 1325 s and 707 s and 758 s and 738 s | 1800 s and 1330 s and 877 s and 798 s and 808 s | 6 and 4 and 2 and 0 (2×) | 8 and 6 and 3 and 0 (2×) | 5.86 mmHg and 6.06 mmHg and 5.12 mmHg and 3.91 mmHg and 4.25 mmHg | 18.66 mmHg and 20.61 mmHg and 12.89 mmHg and 4.19 mmHg and 4.79 mmHg | 899 s and 816 s and 1022 s and 1800 s (2×) | 855 s and 903 s and 1175 s and 1800 s (2×) | 0 | 0 (4×) and 1 | 4.66 mmHg and 4.16 mmHg and 4.65 mmHg and 4.67 mmHg and 3.98 mmHg | 5.13 mmHg and 5.28 mmHg and 4.97 mmHg and 4.79 mmHg and 7.87 mmHg | 1800 s (4×) and 1660 s | 1800 s | – |
| Fc1ccc2c(C3CCN(CCCn4nc5ccccc5n4)CC3)noc2c1 [Compound A002] | 2 (2×) and 6 and 3 and 5 | 5 (2×) and 6 (2×) and 3 | 5.88 mmHg and 6.10 mmHg and 6.02 mmHg and 4.66 mmHg and 3.97 mmHg | 12.33 mmHg and 16.17 mmHg and 18.07 mmHg and 12.06 mmHg and 9.88 mmHg | 1266 s and 833 s and 825 s and 1198 s and 1499 s | 1422 s and 933 s and 966 s and 1276 s and 1345 s | 2 and 3 and 1 and 0 (2×) | 3 and 4 and 2 and 0 (2×) | 5.76 mmHg and 5.88 mmHg and 5.79 mmHg and 3.67 mmHg and 3.87 mmHg | 12.54 mmHg and 11.66 mmHg and 7.05 mmHg and 4.27 mmHg and 5.11 mmHg | 1176 s and 1307 s and 1355 s and 1800 s (2×) | 1233 s and 1346 s and 1432 s and 1800 s (2×) | 0 | 2 and 0 (4×) | 4.15 mmHg and 4.12 mmHg and 4.85 mmHg and 4.11 mmHg and 3.93 mmHg | 8.87 mmHg and 6.08 mmHg and 5.09 mmHg and 4.77 mmHg and 5.03 mmHg | 1568 s and 1800 s (4×) | 1800 s | latency period of initial seminal vesicle contraction compared with the PE model group (high dose group (2.0 mg/kg p.o.)): significant increase; latency period of initial seminal vesicle contraction compared with the PE model group (low dose group (0.125 mg/kg p.o.), P>0.05): no statistically significant differences; latency period of initial seminal vesicle contraction compared with the PE model group (medium dose group (0.5 mg/kg p.o.)): significant increase |
| Fc1ccc2c(C3CCN(CCCCn4nc5ccccc5n4)CC3)noc2c1 [Compound A003] | 0 (2×) and 4 (2×) and 5 | 3 (2×) and 8 (2×) and 7 | 3.97 mmHg and 3.78 mmHg and 5.98 mmHg and 5.59 mmHg and 5.17 mmHg | 4.08 mmHg and 4.25 mmHg and 16.58 mmHg and 14.17 mmHg and 18.06 mmHg | 1458 s and 1525 s and 707 s and 658 s and 735 s | 1800 s (2×) and 865 s and 778 s and 806 s | 6 (2×) and 2 and 0 (2×) | 9 (2×) and 5 and 0 (2×) | 5.88 mmHg and 6.03 mmHg and 5.19 mmHg and 3.9 mmHg and 4.2 mmHg | 18.97 mmHg and 20.11 mmHg and 12.84 mmHg and 4.09 mmHg and 4.76 mmHg | 778 s and 814 s and 1009 s and 1800 s (2×) | 845 s and 903 s and 1175 s and 1800 s (2×) | 0 | 1 and 0 (4×) | 4.65 mmHg and 4.17 mmHg and 4.55 mmHg and 4.62 mmHg and 3.92 mmHg | 8.13 mmHg and 5.24 mmHg and 4.9 mmHg and 4.89 mmHg and 4.86 mmHg | 1623 s and 1800 s (4×) | 1800 s | – |
